Article PMC4490784, “Compensatory induction of MYC expression by sustained CDK9 inhibition via a BRD4-dependent mechanism” (eLife, 2015)

Assays:
Experiment in all cases: KINOMEscan binding assay
SRPK2 = biological target: T1, SRPK2 (Homo sapiens, UniProt P78362); conditions: read-out: % Retention on Solid Support
T1 construct: purchased DiscoveRx KINOMEscan
In short: (§1)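 We profiled i-CDK9 by active-site-directed competitive binding, testing 1 µM and 10 µM against over 400 kinases.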

[1] = biological target: T2, ABL1(Q252H)-phosphorylated (Homo sapiens, UniProt P00519, Q252H); conditions: 1 µM i-CDK9; read-out: % Retention on Solid Support
T2 construct: purchased DiscoveRx KINOMEscan
In short: as §1

BRAF = biological target: T3, BRAF (Homo sapiens, UniProt P15056); conditions: read-out: % Retention on Solid Support
T3 construct: purchased DiscoveRx KINOMEscan
In short: as §1

FES = biological target: T4, FES (Homo sapiens, UniProt P07332); conditions: read-out: % Retention on Solid Support
T4 construct: purchased DiscoveRx KINOMEscan
In short: as §1

SRPK3 = biological target: T5, SRPK3 (Homo sapiens, UniProt Q9UPE1); conditions: read-out: % Retention on Solid Support
T5 construct: purchased DiscoveRx KINOMEscan
In short: as §1

CSNK1A1 = biological target: T6, CSNK1A1 (Homo sapiens, UniProt P48729); conditions: 1 µM i-CDK9; read-out: % Retention on Solid Support
T6 construct: purchased DiscoveRx KINOMEscan
In short: as §1

CASK = biological target: T7, CASK (Homo sapiens, UniProt O14936); conditions: 1 µM i-CDK9; read-out: % Retention on Solid Support
T7 construct: purchased DiscoveRx KINOMEscan
In short: as §1

PKAC-beta = biological target: T8, PKAC-beta (Homo sapiens, UniProt P22694); conditions: read-out: % Retention on Solid Support
T8 construct: purchased DiscoveRx KINOMEscan
In short: as §1

CDK2 = biological target: T9, CDK2 (Homo sapiens, UniProt P24941)
T9 construct: purchased DiscoveRx KINOMEscan
In short: as §1

PAK3 = biological target: T10, PAK3 (Homo sapiens, UniProt O75914); conditions: read-out: % Retention on Solid Support
T10 construct: purchased DiscoveRx KINOMEscan
T10 sequence (O75914 whole entry): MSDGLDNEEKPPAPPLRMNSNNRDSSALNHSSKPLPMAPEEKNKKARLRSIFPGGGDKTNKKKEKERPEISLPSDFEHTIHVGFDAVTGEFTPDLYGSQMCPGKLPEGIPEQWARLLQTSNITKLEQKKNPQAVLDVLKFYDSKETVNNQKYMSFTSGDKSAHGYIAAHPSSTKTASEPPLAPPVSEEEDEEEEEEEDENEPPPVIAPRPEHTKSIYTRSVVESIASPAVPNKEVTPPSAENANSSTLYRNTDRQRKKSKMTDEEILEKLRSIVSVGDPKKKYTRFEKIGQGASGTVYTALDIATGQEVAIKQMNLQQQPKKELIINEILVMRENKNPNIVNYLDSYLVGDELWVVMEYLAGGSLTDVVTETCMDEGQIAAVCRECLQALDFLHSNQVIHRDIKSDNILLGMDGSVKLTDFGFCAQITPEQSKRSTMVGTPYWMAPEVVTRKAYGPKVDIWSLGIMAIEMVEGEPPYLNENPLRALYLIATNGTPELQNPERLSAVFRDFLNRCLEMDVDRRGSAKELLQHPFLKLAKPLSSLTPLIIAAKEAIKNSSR
In short: as §1

MST1 = biological target: T11, MST1 (Homo sapiens, UniProt Q13043)
T11 construct: purchased DiscoveRx KINOMEscan
T11 sequence (Q13043 whole entry): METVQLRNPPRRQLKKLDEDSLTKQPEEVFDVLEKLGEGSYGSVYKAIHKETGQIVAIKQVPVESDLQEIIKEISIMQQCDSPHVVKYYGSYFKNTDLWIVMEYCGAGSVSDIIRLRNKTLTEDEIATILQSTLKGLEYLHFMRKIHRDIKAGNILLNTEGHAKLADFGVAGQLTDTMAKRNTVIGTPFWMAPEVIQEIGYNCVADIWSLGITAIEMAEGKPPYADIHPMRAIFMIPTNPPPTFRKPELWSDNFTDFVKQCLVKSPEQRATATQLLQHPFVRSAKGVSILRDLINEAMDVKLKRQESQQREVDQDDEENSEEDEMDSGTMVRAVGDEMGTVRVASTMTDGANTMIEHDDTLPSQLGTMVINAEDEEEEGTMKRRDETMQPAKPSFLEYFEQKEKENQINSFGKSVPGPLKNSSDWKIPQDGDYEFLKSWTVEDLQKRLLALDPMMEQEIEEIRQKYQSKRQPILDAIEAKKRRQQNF
In short: as §1

KIT(V559D,T670I) = biological target: T12, KIT(V559D,T670I) (Homo sapiens, UniProt P10721, T670I/V559D); conditions: read-out: % Retention on Solid Support
T12 construct: purchased DiscoveRx KINOMEscan
T12 sequence (P10721 26-976 V559D/T670I): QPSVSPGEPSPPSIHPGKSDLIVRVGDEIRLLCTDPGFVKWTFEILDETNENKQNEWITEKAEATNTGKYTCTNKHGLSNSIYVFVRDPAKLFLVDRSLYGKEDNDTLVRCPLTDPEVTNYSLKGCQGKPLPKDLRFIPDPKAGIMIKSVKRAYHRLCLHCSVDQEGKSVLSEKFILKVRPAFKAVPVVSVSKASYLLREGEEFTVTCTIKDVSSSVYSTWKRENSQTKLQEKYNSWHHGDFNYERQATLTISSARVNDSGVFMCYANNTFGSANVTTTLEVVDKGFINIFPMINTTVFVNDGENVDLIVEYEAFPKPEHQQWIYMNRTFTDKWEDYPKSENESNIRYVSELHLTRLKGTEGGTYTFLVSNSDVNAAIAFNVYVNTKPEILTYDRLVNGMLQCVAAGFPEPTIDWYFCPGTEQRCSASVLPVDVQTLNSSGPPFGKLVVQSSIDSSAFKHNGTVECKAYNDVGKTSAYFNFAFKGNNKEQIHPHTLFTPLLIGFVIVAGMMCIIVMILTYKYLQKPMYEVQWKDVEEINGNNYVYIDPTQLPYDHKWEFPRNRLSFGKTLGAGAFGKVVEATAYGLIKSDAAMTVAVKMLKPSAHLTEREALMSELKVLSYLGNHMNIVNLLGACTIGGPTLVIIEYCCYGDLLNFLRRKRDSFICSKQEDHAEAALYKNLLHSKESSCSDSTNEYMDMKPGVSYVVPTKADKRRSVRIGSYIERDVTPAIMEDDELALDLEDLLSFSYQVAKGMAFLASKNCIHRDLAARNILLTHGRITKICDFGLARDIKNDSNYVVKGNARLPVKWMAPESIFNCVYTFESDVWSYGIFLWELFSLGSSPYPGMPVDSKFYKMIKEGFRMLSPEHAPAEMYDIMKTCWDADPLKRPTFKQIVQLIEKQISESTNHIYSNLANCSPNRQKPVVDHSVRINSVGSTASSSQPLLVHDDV
In short: as §1

CLK2 = biological target: T13, CLK2 (Homo sapiens, UniProt P49760); conditions: read-out: % Retention on Solid Support
T13 construct: purchased DiscoveRx KINOMEscan
In short: as §1

SgK110 = biological target: T14, SgK110 (Homo sapiens, UniProt P0C264); conditions: read-out: % Retention on Solid Support
T14 construct: purchased DiscoveRx KINOMEscan
T14 sequence (P0C264 whole entry): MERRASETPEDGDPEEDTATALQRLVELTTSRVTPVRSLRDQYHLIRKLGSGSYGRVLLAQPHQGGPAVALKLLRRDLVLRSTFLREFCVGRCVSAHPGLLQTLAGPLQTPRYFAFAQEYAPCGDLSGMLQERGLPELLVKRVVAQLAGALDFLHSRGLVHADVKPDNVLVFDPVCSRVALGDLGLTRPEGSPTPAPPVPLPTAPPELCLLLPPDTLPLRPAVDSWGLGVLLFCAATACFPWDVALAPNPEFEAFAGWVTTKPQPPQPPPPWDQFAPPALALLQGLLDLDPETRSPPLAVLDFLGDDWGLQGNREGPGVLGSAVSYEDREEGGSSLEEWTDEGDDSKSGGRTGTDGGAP
In short: as §1

EGFR(L858R) = biological target: T15, EGFR(L858R) (Homo sapiens, UniProt P00533, L858R)
T15 construct: purchased DiscoveRx KINOMEscan
In short: as §1

RET(V804M) = biological target: T16, RET(V804M) (Homo sapiens, UniProt P07949, V804M); conditions: read-out: % Retention on Solid Support
T16 construct: purchased DiscoveRx KINOMEscan
In short: as §1

NEK5 = biological target: T17, NEK5 (Homo sapiens, UniProt Q6P3R8); conditions: read-out: % Retention on Solid Support
T17 construct: purchased DiscoveRx KINOMEscan
In short: as §1

SBK1 = biological target: T18, SBK1 (Homo sapiens, UniProt Q52WX2); conditions: read-out: % Retention on Solid Support
T18 construct: purchased DiscoveRx KINOMEscan
T18 sequence (Q52WX2 whole entry): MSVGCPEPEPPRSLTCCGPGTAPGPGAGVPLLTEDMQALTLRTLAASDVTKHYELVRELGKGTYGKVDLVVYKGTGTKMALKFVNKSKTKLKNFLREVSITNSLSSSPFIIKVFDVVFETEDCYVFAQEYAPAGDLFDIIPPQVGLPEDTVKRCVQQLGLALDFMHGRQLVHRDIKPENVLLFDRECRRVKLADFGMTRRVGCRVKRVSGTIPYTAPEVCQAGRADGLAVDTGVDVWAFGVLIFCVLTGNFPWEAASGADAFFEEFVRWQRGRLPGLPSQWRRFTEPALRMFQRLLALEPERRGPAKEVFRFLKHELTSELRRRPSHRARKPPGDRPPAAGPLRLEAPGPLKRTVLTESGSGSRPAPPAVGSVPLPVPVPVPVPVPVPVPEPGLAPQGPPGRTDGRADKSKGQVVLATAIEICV
In short: as §1

PIK3CA = biological target: T19, PIK3CA (Homo sapiens, UniProt P42336); conditions: read-out: % Retention on Solid Support
T19 construct: purchased DiscoveRx KINOMEscan
T19 sequence (P42336 whole entry): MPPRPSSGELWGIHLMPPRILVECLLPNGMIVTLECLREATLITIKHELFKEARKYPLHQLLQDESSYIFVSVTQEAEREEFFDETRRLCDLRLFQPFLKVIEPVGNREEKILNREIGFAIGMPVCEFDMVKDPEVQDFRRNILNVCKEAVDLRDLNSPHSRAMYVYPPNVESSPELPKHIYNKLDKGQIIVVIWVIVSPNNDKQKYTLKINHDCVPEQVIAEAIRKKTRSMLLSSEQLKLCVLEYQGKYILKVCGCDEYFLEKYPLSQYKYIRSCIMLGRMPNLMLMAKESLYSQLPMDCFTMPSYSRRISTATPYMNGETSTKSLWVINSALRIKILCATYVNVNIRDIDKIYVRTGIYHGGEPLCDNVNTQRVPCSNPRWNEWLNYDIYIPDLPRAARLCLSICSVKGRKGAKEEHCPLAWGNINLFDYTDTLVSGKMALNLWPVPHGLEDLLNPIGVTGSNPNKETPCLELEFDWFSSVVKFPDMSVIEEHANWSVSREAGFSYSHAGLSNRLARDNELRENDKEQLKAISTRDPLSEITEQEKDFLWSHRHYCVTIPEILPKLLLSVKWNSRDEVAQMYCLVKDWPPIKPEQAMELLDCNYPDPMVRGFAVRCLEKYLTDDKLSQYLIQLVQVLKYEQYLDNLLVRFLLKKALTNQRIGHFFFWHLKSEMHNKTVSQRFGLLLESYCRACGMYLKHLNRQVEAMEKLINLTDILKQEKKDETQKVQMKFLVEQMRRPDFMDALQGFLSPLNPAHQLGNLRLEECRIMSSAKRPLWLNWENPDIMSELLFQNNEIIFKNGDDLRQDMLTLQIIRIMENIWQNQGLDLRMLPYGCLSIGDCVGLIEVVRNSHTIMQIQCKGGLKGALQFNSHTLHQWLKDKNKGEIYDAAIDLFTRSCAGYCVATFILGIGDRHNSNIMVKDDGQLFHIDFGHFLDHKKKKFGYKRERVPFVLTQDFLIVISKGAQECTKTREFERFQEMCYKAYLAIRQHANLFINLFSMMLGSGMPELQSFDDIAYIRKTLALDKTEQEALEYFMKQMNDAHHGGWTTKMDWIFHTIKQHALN
In short: as §1

CLK4 = biological target: T20, CLK4 (Homo sapiens, UniProt Q9HAZ1); conditions: read-out: % Retention on Solid Support
T20 construct: purchased DiscoveRx KINOMEscan
In short: as §1

PIK3CA(E542K) = biological target: T21, PIK3CA(E542K) (Homo sapiens, UniProt P42336, E542K); conditions: read-out: % Retention on Solid Support
T21 construct: purchased DiscoveRx KINOMEscan
T21 sequence (P42336 whole entry E542K): as the sequence (P42336 whole entry) above, with E542K counted along it
In short: as §1

CDK4-cyclinD1 = biological target: T22, CDK4-cyclinD1 (Homo sapiens, UniProt P11802); conditions: 1 µM i-CDK9; read-out: % Retention on Solid Support
T22 construct: purchased DiscoveRx KINOMEscan
In short: as §1

SRC = biological target: T23, SRC (Homo sapiens, UniProt P12931); conditions: read-out: % Retention on Solid Support
T23 construct: purchased DiscoveRx KINOMEscan
In short: as §1

NDR1 = biological target: T24, NDR1 (Homo sapiens, UniProt Q15208); conditions: read-out: % Retention on Solid Support
T24 construct: purchased DiscoveRx KINOMEscan
T24 sequence (Q15208 whole entry): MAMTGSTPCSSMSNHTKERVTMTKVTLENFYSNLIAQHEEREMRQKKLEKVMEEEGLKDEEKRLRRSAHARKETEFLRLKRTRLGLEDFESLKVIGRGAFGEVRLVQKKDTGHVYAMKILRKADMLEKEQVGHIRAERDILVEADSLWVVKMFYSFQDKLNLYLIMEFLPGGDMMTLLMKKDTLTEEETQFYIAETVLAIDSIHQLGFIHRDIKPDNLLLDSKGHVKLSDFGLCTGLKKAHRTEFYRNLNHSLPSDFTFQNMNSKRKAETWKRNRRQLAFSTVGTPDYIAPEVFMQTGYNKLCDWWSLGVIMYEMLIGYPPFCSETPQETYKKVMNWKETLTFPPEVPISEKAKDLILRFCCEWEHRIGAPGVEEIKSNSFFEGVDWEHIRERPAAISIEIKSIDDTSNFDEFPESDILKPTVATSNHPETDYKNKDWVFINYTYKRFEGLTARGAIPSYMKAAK
In short: as §1

TIE2 = biological target: T25, TIE2 (Homo sapiens, UniProt Q02763); conditions: read-out: % Retention on Solid Support
T25 construct: purchased DiscoveRx KINOMEscan
In short: as §1

EPHB6 = biological target: T26, EPHB6 (Homo sapiens, UniProt O15197); conditions: read-out: % Retention on Solid Support
T26 construct: purchased DiscoveRx KINOMEscan
In short: as §1

FER = biological target: T27, FER (Homo sapiens, UniProt P16591); conditions: read-out: % Retention on Solid Support
T27 construct: purchased DiscoveRx KINOMEscan
In short: as §1

[2] = biological target: T28, ABL1(F317I)-phosphorylated (Homo sapiens, UniProt P00519, F317I); conditions: 1 µM i-CDK9; read-out: % Retention on Solid Support
T28 construct: purchased DiscoveRx KINOMEscan
In short: as §1

SNRK = biological target: T29, SNRK (Homo sapiens, UniProt Q9NRH2); conditions: 1 µM i-CDK9; read-out: % Retention on Solid Support
T29 construct: purchased DiscoveRx KINOMEscan
In short: as §1

MYO3A = biological target: T30, MYO3A (Homo sapiens, UniProt Q8NEV4); conditions: read-out: % Retention on Solid Support
T30 construct: purchased DiscoveRx KINOMEscan
In short: as §1

T1 sequence (P78362 whole entry): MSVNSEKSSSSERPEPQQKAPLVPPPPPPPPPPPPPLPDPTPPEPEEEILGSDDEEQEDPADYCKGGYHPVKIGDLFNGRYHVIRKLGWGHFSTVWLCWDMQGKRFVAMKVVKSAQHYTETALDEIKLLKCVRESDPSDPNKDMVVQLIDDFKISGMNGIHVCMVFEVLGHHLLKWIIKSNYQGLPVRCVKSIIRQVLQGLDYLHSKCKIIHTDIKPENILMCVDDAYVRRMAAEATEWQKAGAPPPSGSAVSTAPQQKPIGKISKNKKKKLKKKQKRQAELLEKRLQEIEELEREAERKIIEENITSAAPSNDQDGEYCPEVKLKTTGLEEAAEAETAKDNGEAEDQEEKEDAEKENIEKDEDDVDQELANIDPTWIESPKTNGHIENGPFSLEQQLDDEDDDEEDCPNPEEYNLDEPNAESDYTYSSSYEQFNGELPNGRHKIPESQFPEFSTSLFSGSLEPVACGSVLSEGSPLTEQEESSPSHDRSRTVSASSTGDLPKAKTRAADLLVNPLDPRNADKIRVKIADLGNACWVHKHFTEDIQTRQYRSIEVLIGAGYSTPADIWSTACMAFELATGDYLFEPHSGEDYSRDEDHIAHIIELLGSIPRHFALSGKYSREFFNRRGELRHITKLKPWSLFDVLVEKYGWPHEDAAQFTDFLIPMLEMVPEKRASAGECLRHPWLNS

N[C@H]1CC[C@H](Nc2cc(-c3cccc(NCc4cccc(F)c4)n3)c(Cl)cn2)CC1 [i-CDK9, N2′-(trans-4-aminocyclohexyl)-5′-chloro-N6-(3-fluorobenzyl)-2,4′-bipyridine-2′,6-diamine]
remaining binding at 1 µM (SRPK2; 1 µM i-CDK9): 57% | remaining binding at 10 µM (SRPK2; 10 µM i-CDK9): 100% | remaining binding at 1 µM [1]: 100% | remaining binding at 1 µM (BRAF; 1 µM i-CDK9): 100% | remaining binding at 10 µM (BRAF; 10 µM i-CDK9): 70% | remaining binding at 1 µM (FES; 1 µM i-CDK9): 97% | remaining binding at 10 µM (FES; 10 µM i-CDK9): 90% | remaining binding at 1 µM (SRPK3; 1 µM i-CDK9): 100% | remaining binding at 10 µM (SRPK3; 10 µM i-CDK9): 100% | remaining binding at 1 µM (CSNK1A1): 69% | remaining binding at 1 µM (CASK): 100% | remaining binding at 1 µM (PKAC-beta; 1 µM i-CDK9): 80% | remaining binding at 10 µM (PKAC-beta; 10 µM i-CDK9): 80% | % Retention on Solid Support (CDK2; 1 µM i-CDK9): 85% | % Retention on Solid Support (CDK2; 10 µM i-CDK9): 19% | remaining binding at 1 µM (PAK3; 1 µM i-CDK9): 100% | remaining binding at 10 µM (PAK3; 10 µM i-CDK9): 98% | % Retention on Solid Support (MST1; 1 µM i-CDK9): 100% | % Retention on Solid Support (MST1; 10 µM i-CDK9): 100% | remaining binding at 1 µM (KIT(V559D,T670I); 1 µM i-CDK9): 95% | remaining binding at 10 µM (KIT(V559D,T670I); 10 µM i-CDK9): 100% | remaining binding at 1 µM (CLK2; 1 µM i-CDK9): 61% | remaining binding at 10 µM (CLK2; 10 µM i-CDK9): 26% | remaining binding at 1 µM (SgK110; 1 µM i-CDK9): 72% | remaining binding at 10 µM (SgK110; 10 µM i-CDK9): 100% | % Retention on Solid Support (EGFR(L858R); 1 µM i-CDK9): 35% | % Retention on Solid Support (EGFR(L858R); 10 µM i-CDK9): 100% | remaining binding at 1 µM (RET(V804M); 1 µM i-CDK9): 74% | remaining binding at 10 µM (RET(V804M); 10 µM i-CDK9): 74% | remaining binding at 1 µM (NEK5; 1 µM i-CDK9): 88% | remaining binding at 10 µM (NEK5; 10 µM i-CDK9): 100% | remaining binding at 1 µM (SBK1; 1 µM i-CDK9): 100% | remaining binding at 10 µM (SBK1; 10 µM i-CDK9): 100% | remaining binding at 1 µM (PIK3CA; 1 µM i-CDK9): 100% | remaining binding at 10 µM (PIK3CA; 10 µM i-CDK9): 100% | remaining binding at 1 µM (CLK4; 1 µM i-CDK9): 18% | remaining binding at 10 µM (CLK4; 10 µM i-CDK9): 4.2% | remaining binding at 1 µM (PIK3CA(E542K); 1 µM i-CDK9): 100% | remaining binding at 10 µM (PIK3CA(E542K); 10 µM i-CDK9): 100% | remaining binding at 1 µM (CDK4-cyclinD1): 100% | remaining binding at 1 µM (SRC; 1 µM i-CDK9): 87% | remaining binding at 10 µM (SRC; 10 µM i-CDK9): 100% | remaining binding at 1 µM (NDR1; 1 µM i-CDK9): 100% | remaining binding at 10 µM (NDR1; 10 µM i-CDK9): 88% | remaining binding at 1 µM (TIE2; 1 µM i-CDK9): 82% | remaining binding at 10 µM (TIE2; 10 µM i-CDK9): 100% | remaining binding at 1 µM (EPHB6; 1 µM i-CDK9): 47% | remaining binding at 10 µM (EPHB6; 10 µM i-CDK9): 74% | remaining binding at 1 µM (FER; 1 µM i-CDK9): 56% | remaining binding at 10 µM (FER; 10 µM i-CDK9): 100% | remaining binding at 1 µM [2]: 100% | remaining binding at 1 µM (SNRK): 64% | remaining binding at 1 µM (MYO3A; 1 µM i-CDK9): 91% | remaining binding at 10 µM (MYO3A; 10 µM i-CDK9): 96%
